Results reported in patent EP2114888B1, “TRICYCLIC COMPOUNDS AND THEIR USE AS GLUCOCORTICOID RECEPTOR MODULATORS” (priority 2007, dated 2008).

What was measured:
[1] = system: Mouse Collagen-induced arthritis (mCIA); assay: Therapeutic mouse collagen-induced arthritis (mCIA) model; type: in vivo, Male DBA/J mice; conditions: dosing day 34 through day 49
Text: Mouse Collagen-induced arthritis is a commonly used chronic, preclinical model of rheumatoid arthritis in which joint swelling and bone destruction occur following immunization with type II collagen. Reduction of disease incidence and severity has been shown previously to be predictive of disease-modification and signs and symptoms mitigation, respectively, in a clinical setting. In the therapeutic mCIA model, induction of disease incidence and severity was synchronized via LPS stimulation. Male DBA/J mice were immunized with 100 ug of bovine type II collagen (bCII) on day 0. […] Dosing of compounds was initiated in the therapeutic mode on day 34 and continued through day 49. Different treatments were compared by measuring the decrease in incidence (i.e., resolution of disease) and the decrease in severity of paw swelling over time.

TNFα = assay: LPS-induced serum TNFα suppression, 28-day repeat dose mouse model; type: in vivo, Swiss Webster female mice; conditions: oral gavage, 28 days, LPS-induced serum TNFα
Protocol: The compounds were weighed and suspended in a vehicle of 0.5% methylcellulose/0.025% tween 20 (Sigma-Aldrich, St. Louis, MO). Compound suspensions were homogenized using a Polytron PT-3100 tissue homogenizer to create a very fine suspension and were then sonicated for 10 minutes using a water bath sonicator. Aliquots of each suspension were made for daily dosing at 0.2 ml/dose. Swiss Webster female mice, 10-12 weeks old, 28-29 grams, (Taconic, Germantown, NY) were used in accordance with the guidelines of the Institutional Animal Care and Use Committee and in accordance with NIH guidelines on laboratory animal welfare. Mice were acclimated in the Pfizer animal facility for three to seven days prior to being utilized in a study. […] Each treatment group contained 5-10 mice. To establish a dosing regimen for the studies, a pilot pharmacodynamic time course experiment was conducted to quantify TNFα repression after a single ED80 dose.
Body weights were measured on the first and last day of each experiment. Blood samples were obtained after three weeks of dosing for a steady-state pharmacokinetic (PK) analysis. To assess compound effects on LPS-induced TNFα, all mice received an intraperitoneal injection of LPS (Salmonella typhosa, L-7895; Sigma-Aldrich, St. Louis,) 2.5 hr after the last dose on day 28. Mice were sacrificed 90 minutes after LPS administration. Serum samples were quantified for osteocalcin and TNFα using the multiplex assays (Linco Research, Inc, St. Charles, MO; Luminex 100, Austin, TX). Samples were diluted 1:20 and the assay was run according to manufacturer's instructions. The osteocalcin standard was purchased separately (Biomedical Technologies Inc., Stoughton, MA). Mice were fasted for 4 hours before serum was collected for TNFα, and osteocalcin levels. For each experiment, outliers were detected by calculating the number of standard deviations from the mean of the group. If the value being examined was more than 2.5 standard deviations from the mean, it was excluded from the rest of the calculations.
The individual mouse percent inhibition values were fit to a four-parameter logistic model using the dose mean for each group.
ED50 and ED80 values were obtained for the various endpoints using a four-parameter logistic fit. For compounds which were tested multiple times, ED50 and ED80 values were obtained using four-parameter logistic fits of the combined data from multiple experiments.

IL-6 = assay: IL-1β-stimulated IL-6 production in A549 lung epithelial cells; type: cell-based, Human; conditions: A549 cells; Prednisolone (1 µM) = 100% inhibition control
Protocol: Human A549 lung epithelial cells (American Type Culture Collection, Rockville, MD) were cultured in Kaighn's F-12K medium with penicillin-streptomycin (10 U/mL) and 10% heat-inactivated fetal bovine serum (all from Invitrogen, Grand Island, NY). A549 cells were plated at a density of 30,000 cells/well in 96-well plates and incubated overnight at 37°C and with 5% CO2. The cells were serum-starved by replacing the growth medium with serum-free Kaighn's F-12K medium with penicillin-streptomycin (10 U/mL) and, again, incubating overnight at 37°C and with 5% CO2. On the third day, the medium was replaced with fresh serum-free medium and the cells were incubated with or without compound (vehicle was DMSO at 0.1 % maximum concentration) for approximately 1 hour and then stimulated with 1 ng/mL recombinant human IL-1β (R&D Systems, Minneapolis, MN) for 20 hours at 37°C and with 5% CO2. Cell supernatants were collected for determination of IL-6 levels using MSD (Meso Scale Discovery, Gaithersburg, MD) 96-well Single Spot plates as per the manufacturer's instructions. Plates were read with an MSD Sector Imager 6000. […] Percent inhibition for each compound concentration, relative to these controls, was calculated using Excel (Microsoft, Redmond, WA). IC50 values were generated using GraFit 5.0 data analysis software (Erithacus Software Ltd., Surrey, UK).

| Structure (SMILES) | Therapeutic mCIA (ED80 dose) [1] [mg/kg] | TNFα Suppression (ED80 dose) (TNFα) [mg/kg] | IL-6 % Inhibition (IL-6) [%] |
| --- | --- | --- | --- |
| Cc1cnc(NC(=O)c2ccc3c(c2)CC[C@@H]2C[C@@](O)(C(F)(F)F)CC[C@@]32Cc2ccccc2)c(C)n1 [Comparator B, (4βS,7R,8αR)-4β-benzyl-N-(3,5-dimethylpyrazin-2-yl)-7-hydroxy-7-(trifluoromethyl)-4α,5,6,7,8,8α,9,10-octahydrophenanthrene-2-carboxamide] | >10 | 2.91 | 75.8 |
| Cc1ncccc1NC(=O)c1ccc2c(c1)CC[C@@H]1C[C@@](O)(CCC(F)(F)F)CC[C@@]21Cc1ccccc1 [Comparator C, (4βS,7S,8αR)-4β-benzyl-7-hydroxy-N-(2-methylpyridin-3-yl)-7-(3,3,3-trifluoropropyl)-4β,5,6,7,8,8α,9,10-octahydrophenanthrene-2-carboxamide] | >10 | 1.33 | 82.6 |
| Cc1ccncc1NC(=O)c1ccc2c(c1)CC[C@@H]1C[C@@](O)(C(F)(F)F)CC[C@@]21Cc1ccccc1 [Comparator D, (4βS,7R,8αR)-4β-benzyl-7-hydroxy-N-(4-methylpyridin-3-yl)-7-(trifluoromethyl)-4,5,6,7,8,8α,9,10-octahydrophenanthrene-2-carboxamide] | – | >20 | 79.8 |
| Cc1ncccc1NC(=O)c1ccc2c(c1)C(=O)C[C@@H]1C[C@@](O)(C(F)(F)F)CC[C@@]21Cc1ccccc1 [Comparator E, (4βS,7R,8αS)-4β-benzyl-7-hydroxy-N-(2-methylpyridin-3-yl)-10-oxo-7-(trifluoromethyl)-4α,5,6,7,8,8α,9,10-octahydrophenanthrene-2-carboxamide] | 2.6 | 1.18 | 79.7 |
| Cc1ncccc1NC(=O)c1ccc2c(c1)[C@H](O)C[C@@H]1C[C@@](O)(C(F)(F)F)CC[C@@]21Cc1ccccc1 [Comparator F, (4βS,7R,8αR,10R)-4β-benzyl-7,10-dihydroxy-N-(2-methylpyridin-3-yl)-7-(trifluoromethyl)-4β,5,6,7,8,8α,9,10-octahydrophenanthrene-2-carboxamide] | >10 | 5.67 | 83.3 |
| Cc1ncccc1NC(=O)c1ccc2c(c1)CC[C@@H]1C[C@@](O)(C(F)F)CC[C@@]21Cc1ccccc1 [Comparator H, (4βS,7R,8αR)-4β-benzyl-7-(difluoromethyl)-7-hydroxy-N-(2-methylpyridin-3-yl)-4α,5,6,7,8,8α,9,10-octahydrophenanthrene-2-carboxamide] | – | 0.72 | 64.9 |
| Cc1ncccc1NC(=O)c1ccc2c(c1)C=C[C@@H]1C[C@@](O)(C(F)(F)F)CC[C@@]21Cc1ccccc1 [Comparator I, (4βS,7R,8αS)-4β-benzyl-7-hydroxy-N-(2-methylpyridin-3-yl)-7-(trifluoromethyl)-4β,5,6,7,8,8α-hexahydrophenanthrene-2-carboxamide] | >20 | 5.45 | 67.5 |
| Cc1ncc(NC(=O)c2ccc3c(c2)CC[C@@H]2C[C@@](O)(CCC(F)(F)F)CC[C@@]32Cc2ccccc2)c(C)n1 [Comparator J, (4βS,7S,8αR)-4β-benzyl-N-(2,4-dimethylpyrimidin-5-yl)-7-hydroxy-7-(3,3,3-trifluoropropyl)-4β,5,6,7,8,8α,9,10-octahydrophenanthrene-2-carboxamide] | >20 | 0.79 | 55 |
